Results published in ChEMBL document CHEMBL2069209, “Identification of selective tubulin inhibitors as potential anti-trypanosomal agents” (Bioorg Med Chem Lett, 2012).

What was measured:
[1] = tested on: Trypanosoma brucei; assay: Antitrypanosomal activity against bloodstream form of Trypanosoma brucei 427 after 48 hrs by MTS assay; format: functional, organism-based; settings: Trypanosoma brucei, 427, 48 h
[2] = tested on: SK-BR-3; assay: Growth inhibition of human SKBR3 cells after 48 hrs by MTT assay; format: cell-based; settings: SK-BR-3, 48 h
[3] = Selectivity ratio of IC50 for human SKBR3 cells to IC50 for bloodstream form of Trypanosoma brucei 427; format: ADME, cell-based, SK-BR-3; settings: read-out: Ratio IC50

SMILES	IC50 [1]	IC50 [2]	selectivity ratio [3]
COc1ccc(S(=O)(=O)Nc2cccnc2Nc2ccc(O)cc2)cc1 [ABT-751]	82.1 µM	0.74 µM	
Cc1ccc(C)c(COc2cc(NC(=O)Cc3ccccc3)ccc2N(C)S(C)(=O)=O)c1	51.3 µM		2.3
CC(=O)O[C@H]1C(=O)[C@@]2(C)[C@H]([C@H](OC(=O)c3ccccc3)[C@]3(O)C[C@H](OC(=O)[C@H](O)[C@@H](NC(=O)c4ccccc4)c4ccccc4)C(C)=C1C3(C)C)[C@]1(OC(C)=O)CO[C@@H]1C[C@@H]2O [PACLITAXEL]	0.0046 µM		
COC(=O)Nc1nc2cc(C(=O)c3cccs3)ccc2[nH]1 [NOCODAZOLE]	44.2 µM	0.084 µM	
CN(c1ccc(NC(=O)c2ccc(Cl)c([N+](=O)[O-])c2)cc1OCc1ccccc1)S(C)(=O)=O	2.3 µM		4
COc1ccc(CC(=O)Nc2ccc(N(C)S(C)(=O)=O)c(OCc3cc(C)ccc3C)c2)cc1OC	6.85 µM		5
CN(c1ccc(NC(=O)c2ccc(C#N)cc2)cc1OCc1ccccc1)S(C)(=O)=O	2.8 µM		6
O=C(Nc1ccncc1)C(=O)c1cn(Cc2ccc(Cl)cc2)c2ccccc12 [INDIBULIN]	114 µM	0.033 µM	
Cc1ccc(C)c(COc2cc(NC(=O)c3ccccc3)ccc2N(C)S(C)(=O)=O)c1	6.44 µM		0.6
Cc1ccc(C)c(COc2cc(NC(=O)c3ccc4c(c3)OCO4)ccc2N(C)S(C)(=O)=O)c1	3.22 µM		0.1
CC[C@]1(O)C[C@@H]2CN(CCc3c([nH]c4ccccc34)[C@@](C(=O)OC)(c3cc4c(cc3OC)N(C)[C@H]3[C@@](O)(C(=O)OC)[C@H](OC(C)=O)[C@]5(CC)C=CCN6CC[C@]43[C@@H]65)C2)C1 [VINBLASTINE]	0.41 µM	0.00091 µM	
